The source of these data is PubChem BioAssay (NCI).

Several values for one entry are separate records, joined by “and”; a condition that tells them apart may be missing. Equal values may be shown once.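 How tested: cells in 96-well plates exposed to compound for 48 hours at five concentrations. GI50: concentration for 50% inhibition of growth. TGI denotes the concentration required for complete inhibition of growth.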

Test systems include HOP-62 NSCLC; HL-60(TB) leukemia; LOX IMVI melanoma; MDA-MB-231 breast; MDA-MB-435; SW-620 colon; DU-145 prostate; ACHN renal; A549 NSCLC; CCRF-CEM leukemia.
What all share (assay): inhibition of tumour cell growth, NCI panel, 48 h

Consider `CCN1C(=O)N(CC)C2C1NN=c1s/c(=C\c3ccc[nH]3)c(=O)n12` (centres undefined), for which the GI50 with HOP-62 NSCLC is 603 nM; with HL-60(TB) leukemia it was 285 nM; in the experiment with LOX IMVI melanoma, 578 nM; with MDA-MB-231 breast it was 3010 nM; with MDA-MB-435, 83.2 nM; with SW-620 colon it was 326 nM. Besides, the GI50 is 496 nM in the experiment with DU-145 prostate, 538 nM in the experiment on ACHN renal, 523 nM in the experiment on A549 NSCLC and 402 nM in the experiment on CCRF-CEM leukemia. Besides, the TGI in the experiment on HOP-62 NSCLC was more than 100000 nM; in the experiment with HL-60(TB) leukemia, 1400 nM; in the experiment on LOX IMVI melanoma, more than 100000 nM; in the experiment with MDA-MB-231 breast, more than 100000 nM; in the experiment on MDA-MB-435, 421 nM; in the experiment with SW-620 colon it was more than 100000 nM. Also, the TGI with DU-145 prostate, in the experiment with ACHN renal, in the experiment with A549 NSCLC and in the experiment on CCRF-CEM leukemia was more than 100000 nM throughout.
As to `Nc1ncccc1-c1nc2ccc(-c3ccccc3)nc2n1-c1ccc(C2(N)CCC2)cc1`, the GI50 with HOP-62 NSCLC was 1900 nM; in the experiment with HL-60(TB) leukemia, 1830 nM; in the experiment with LOX IMVI melanoma, 1370 nM; in the experiment on MDA-MB-231 breast, 1460 nM; in the experiment with MDA-MB-435 it was 1350 nM; in the experiment with SW-620 colon, 1530 nM. The GI50 in the experiment with DU-145 prostate is 2980 nM; in the experiment with ACHN renal, 1140 nM; with A549 NSCLC, 1690 nM; in the experiment with CCRF-CEM leukemia, 437 nM. The TGI with HOP-62 NSCLC came out at 8480 nM; in the experiment with HL-60(TB) leukemia it was 3920 nM; in the experiment with LOX IMVI melanoma, 2770 nM; with MDA-MB-231 breast, 3390 nM; with MDA-MB-435, 2880 nM; in the experiment on SW-620 colon it was 3350 nM. The TGI was 15000 nM with DU-145 prostate, 3190 nM in the experiment with ACHN renal, 6810 nM in the experiment on A549 NSCLC and 9860 nM with CCRF-CEM leukemia.
Consider `C=CCCCOC1[C@H](OCc2ccccc2)C(OCc2ccccc2)C(OC)O[C@@H]1CNC(=O)c1cccc(I)c1` (some centres undefined), for which the GI50 was more than 100000 nM in the experiment with HOP-62 NSCLC; 2830 nM with HL-60(TB) leukemia; 2810 nM with LOX IMVI melanoma; 8340 nM in the experiment with MDA-MB-231 breast; 5310 nM with MDA-MB-435; 4620 nM with SW-620 colon. Besides, the GI50 in the experiment with DU-145 prostate was 8520 nM; in the experiment with ACHN renal it was 5760 nM; in the experiment with A549 NSCLC, 8170 nM; with CCRF-CEM leukemia it was 3550 nM. Besides, the TGI with HOP-62 NSCLC was more than 100000 nM; in the experiment on HL-60(TB) leukemia, 21300 nM; in the experiment on LOX IMVI melanoma it was more than 100000 nM; with MDA-MB-231 breast, more than 100000 nM; with MDA-MB-435 it was more than 100000 nM; with SW-620 colon it was more than 100000 nM. Further, the TGI in the experiment on DU-145 prostate, in the experiment on ACHN renal, in the experiment with A549 NSCLC and in the experiment with CCRF-CEM leukemia was more than 100000 nM throughout.
Turning to `C[C@@H]1COCCN1c1cc(-c2ccnn2C)c2ccnc(-c3ccn[nH]3)c2n1`, the GI50 is 112 nM and 216 nM with HOP-62 NSCLC; 106 nM and 194 nM in the experiment with HL-60(TB) leukemia; 57.2 nM and 118 nM in the experiment with LOX IMVI melanoma; 223 nM and 386 nM with MDA-MB-231 breast; 98.4 nM and 199 nM with MDA-MB-435; 259 nM and 603 nM in the experiment with SW-620 colon. Further, the GI50 in the experiment on DU-145 prostate was 99.2 nM and 202 nM; with ACHN renal, 41.7 nM; with A549 NSCLC it was 62.3 nM and 190 nM; in the experiment on CCRF-CEM leukemia, 17.5 nM and 30 nM. Further, the TGI was 1940 nM in the experiment with HOP-62 NSCLC; 660 nM and 3160 nM with HL-60(TB) leukemia; 421 nM and 1510 nM with LOX IMVI melanoma; 10700 nM and > 69900 nM in the experiment on MDA-MB-231 breast; 2890 nM and 5000 nM with MDA-MB-435; more than 100000 nM with SW-620 colon. The TGI in the experiment with DU-145 prostate was more than 100000 nM; in the experiment on ACHN renal, 596 nM; with CCRF-CEM leukemia, more than 23700 nM.
As for `Brc1cccc(-c2cc(-c3ccc4nccnc4c3)[nH]n2)c1`, the GI50 is 1020 nM with HOP-62 NSCLC; 519 nM with HL-60(TB) leukemia; 1420 nM in the experiment on LOX IMVI melanoma; 2940 nM with MDA-MB-231 breast; 74.3 nM in the experiment with MDA-MB-435; 273 nM in the experiment on SW-620 colon. Further, the GI50 in the experiment with DU-145 prostate was 1090 nM; in the experiment on ACHN renal, 1720 nM; with A549 NSCLC it was 860 nM; in the experiment with CCRF-CEM leukemia, 864 nM. Further, the TGI with HOP-62 NSCLC was more than 250000 nM; in the experiment on HL-60(TB) leukemia, 1750 nM; in the experiment with LOX IMVI melanoma it was more than 250000 nM; with MDA-MB-231 breast it was 23700 nM; with MDA-MB-435 it was 412 nM; in the experiment on SW-620 colon, more than 250000 nM. Also, the TGI in the experiment with DU-145 prostate was more than 200000 nM; with ACHN renal, more than 250000 nM; with A549 NSCLC it was more than 250000 nM; in the experiment with CCRF-CEM leukemia, more than 250000 nM.
For the compound `O=c1c(-c2ccccc2)coc2cc(OC/C(=N/O)c3ccc(F)cc3)ccc12`, the GI50 in the experiment on HOP-62 NSCLC was 27000 nM; in the experiment on HL-60(TB) leukemia, 15000 nM; in the experiment with LOX IMVI melanoma, 44100 nM; with MDA-MB-231 breast, 19600 nM; in the experiment with MDA-MB-435 it was 20900 nM; with SW-620 colon, 17100 nM. The GI50 with DU-145 prostate was 17400 nM; with ACHN renal it was 22400 nM; with A549 NSCLC, 13600 nM; in the experiment on CCRF-CEM leukemia it was 26000 nM. Further, the TGI in the experiment on HOP-62 NSCLC is 53500 nM; in the experiment on HL-60(TB) leukemia, 89700 nM; in the experiment with LOX IMVI melanoma, more than 100000 nM; in the experiment on MDA-MB-231 breast it was 43400 nM; in the experiment on MDA-MB-435 it was 97700 nM; in the experiment with SW-620 colon, 33400 nM. The TGI with DU-145 prostate is 36000 nM; in the experiment with ACHN renal, 43500 nM; with A549 NSCLC, 35900 nM; in the experiment with CCRF-CEM leukemia it was more than 100000 nM.
On to `Cc1c2ccncc2c(C)c2c1c1cc(CO)ccc1n2C`, for which the GI50 in the experiment with HOP-62 NSCLC is 335 nM; with HL-60(TB) leukemia, 854 nM; with LOX IMVI melanoma, 449 nM; in the experiment on MDA-MB-231 breast, 456 nM; in the experiment on MDA-MB-435 it was 467 nM; in the experiment on SW-620 colon, 297 nM. The GI50 is 653 nM in the experiment with DU-145 prostate, 362 nM with ACHN renal, 416 nM in the experiment with A549 NSCLC and 545 nM with CCRF-CEM leukemia. In addition, the TGI in the experiment on HOP-62 NSCLC is 2050 nM; in the experiment with HL-60(TB) leukemia, 5600 nM; in the experiment on LOX IMVI melanoma it was 2100 nM; in the experiment with MDA-MB-231 breast, 2960 nM; with MDA-MB-435, 3740 nM; with SW-620 colon, 10900 nM. For the same compound, the TGI stood at 6020 nM in the experiment with DU-145 prostate, 9390 nM with ACHN renal, 2810 nM with A549 NSCLC and 4180 nM with CCRF-CEM leukemia.
